Data taken from patent US20230312578A1, “6H-INDOLO[2,3-B]QUINOXALINE DERIVATIVES USEFUL IN THERAPY” (Vironova Medical AB, priority 2020, published 2023).
Like-named read-outs stand apart in the source and are kept apart here.

Experiments:
Assay type in all cases: cell-based
CCRF-CEM = test: Human tumor cell line growth assay (SRB); conditions: Leukemia, 48 h; for CC50: read-out: LC50 (the source's name)
HL-60(TB) = test: Human tumor cell line growth assay (SRB); conditions: Leukemia, 48 h; for CC50: read-out: LC50 (the source's name)
[1] = Human tumor cell line growth assay (SRB); conditions: human, MOLT-4 cells (leukemia), MOLT-4, 48 h, read-out: LC50
MOLT-4 = test: Human tumor cell line growth assay (SRB); conditions: Homo sapiens; Leukemia, MOLT-4, 48 h
RPMI-8226 = test: Human tumor cell line growth assay (SRB); conditions: Homo sapiens; Leukemia, RPMI-8226, 48 h
[2] = Human tumor cell line growth assay (SRB); conditions: human, SR cells (leukemia), read-out: LC50
SR = test: Human tumor cell line growth assay (SRB); conditions: Homo sapiens, Leukemia, 48 h
[3] = Human tumor cell line growth assay (SRB); conditions: human, HOP-92 cells (NSCLC), HOP-92, 48 h
HOP-92 = test: Human tumor cell line growth assay (SRB); conditions: Homo sapiens; NSCLC, HOP-92, 48 h
[4] = Human tumor cell line growth assay (SRB); conditions: human, NCI-H23 cells (NSCLC), NCI-H23, 48 h, read-out: LC50
NCI-H23 = test: Human tumor cell line growth assay (SRB); conditions: Homo sapiens; NSCLC, NCI-H23, 48 h
[5] = Human tumor cell line growth assay (SRB); conditions: human, NCI-H522 cells (NSCLC), NCI-H522, 48 h
NCI-H522 = test: Human tumor cell line growth assay (SRB); conditions: Homo sapiens; NSCLC, NCI-H522, 48 h
[6] = Human tumor cell line growth assay (SRB); conditions: human, HCT-116 cells (colon), HCT-116, 48 h, read-out: LC50
HCT-116 = test: Human tumor cell line growth assay (SRB); conditions: Homo sapiens; Colon, HCT-116, 48 h
[7] = Human tumor cell line growth assay (SRB); conditions: human, HCT-15 cells (colon), HCT-15, 48 h
HCT-15 = test: Human tumor cell line growth assay (SRB); conditions: Homo sapiens; Colon, HCT-15, 48 h
[8] = Human tumor cell line growth assay (SRB); conditions: human, KM12 cells (colon), KM12, 48 h, read-out: LC50
KM12 = test: Human tumor cell line growth assay (SRB); conditions: Homo sapiens; Colon, KM12, 48 h
[9] = Human tumor cell line growth assay (SRB); conditions: human, SW-620 cells (colon), SW-620, 48 h
SW-620 = test: Human tumor cell line growth assay (SRB); conditions: Homo sapiens; Colon, SW-620, 48 h
[10] = Human tumor cell line growth assay (SRB); conditions: human, LOX IMVI cells (melanoma), read-out: LC50
LOX IMVI = test: Human tumor cell line growth assay (SRB); conditions: Homo sapiens, Melanoma, 48 h
[11] = Human tumor cell line growth assay (SRB); conditions: human, MDA-MB-435 cells (melanoma), MDA-MB-435, 48 h, read-out: LC50
MDA-MB-435 = test: Human tumor cell line growth assay (SRB); conditions: Homo sapiens; Melanoma, MDA-MB-435, 48 h
[12] = Human tumor cell line growth assay (SRB); conditions: human, SK-MEL-2 cells (melanoma), SK-MEL-2, 48 h, read-out: LC50
SK-MEL-2 = test: Human tumor cell line growth assay (SRB); conditions: Homo sapiens; Melanoma, SK-MEL-2, 48 h
[13] = Human tumor cell line growth assay (SRB); conditions: human, SK-MEL-28 cells (melanoma), SK-MEL-28, 48 h, read-out: LC50
SK-MEL-28 = test: Human tumor cell line growth assay (SRB); conditions: Homo sapiens; Melanoma, SK-MEL-28, 48 h
[14] = Human tumor cell line growth assay (SRB); conditions: human, UACC-62 cells (melanoma), UACC-62, 48 h, read-out: LC50
786-0 = test: Human tumor cell line growth assay (SRB); conditions: Renal, 786-0, 48 h
A498 = test: Human tumor cell line growth assay (SRB); conditions: Renal, A498, 48 h; for CC50: read-out: LC50 (the source's name)
CAKI-1 = test: Human tumor cell line growth assay (SRB); conditions: Renal, CAKI-1, 48 h; for CC50: read-out: LC50 (the source's name)
RXF 393 = test: Human tumor cell line growth assay (SRB); conditions: Renal, RXF 393, 48 h; for CC50: read-out: LC50 (the source's name)
SN12C = test: Human tumor cell line growth assay (SRB); conditions: Renal, 48 h; for CC50: read-out: LC50 (the source's name)
TK-10 = test: Human tumor cell line growth assay (SRB); conditions: Renal, TK-10, 48 h; for CC50: read-out: LC50 (the source's name)
MCF7 = test: Human tumor cell line growth assay (SRB); conditions: Breast, MCF7, 48 h; for CC50: read-out: LC50 (the source's name)

Question: With Cc1cc2nc3c4cc(N)ccc4n(CCN(C)C)c3nc2cc1C [JBD-136, 6-(2-(dimethylamino)ethyl)-2,3-dimethyl-6H-indolo [2,3-b]quinoxalin-9-amine] as the compound, how does the GI50 (CCRF-CEM) read?
Answer: Its GI50 is 0.862 µM.

Question: What about the CC50 (CCRF-CEM) of the same compound?
Answer: Its CC50 is 76.9 µM.

Question: And the GI50 (HL-60(TB))?
Answer: Its GI50 is 1.21 µM.

Question: And the CC50 (HL-60(TB))?
Answer: Its CC50 is 21.9 µM.

Question: What about the CC50 at 48 h [1] of the same compound?
Answer: Its CC50 at 48 h is 71.9 µM.

Question: And the GI50 (MOLT-4)?
Answer: The GI50 was 0.366 µM.

Question: What about the GI50 (RPMI-8226) of the same compound?
Answer: Its GI50 is 0.74 µM.

Question: What about the CC50 at 48 h [2] of the same compound?
Answer: Its CC50 at 48 h is over 100 µM.

Question: And the GI50 (SR)?
Answer: Its GI50 is 0.239 µM.

Question: And the LC50 at 48 h [3]?
Answer: Its LC50 at 48 h is over 100 µM.

Question: And the GI50 (HOP-92)?
Answer: Its GI50 is 0.912 µM.

Question: What about the CC50 at 48 h [4] of the same compound?
Answer: Its CC50 at 48 h is 33 µM.

Question: And the GI50 (NCI-H23)?
Answer: Its GI50 is 1.08 µM.

Question: And the LC50 at 48 h [5]?
Answer: The LC50 at 48 h was over 100 µM.

Question: And the GI50 (NCI-H522)?
Answer: The GI50 was 0.771 µM.

Question: And the CC50 at 48 h [6]?
Answer: Its CC50 at 48 h is 51.4 µM.

Question: What about the GI50 (HCT-116) of the same compound?
Answer: Its GI50 is 0.369 µM.

Question: And the LC50 (concentration killing 50% of cells) at 48 h [7]?
Answer: Its LC50 (concentration killing 50% of cells) at 48 h is over 100 µM.

Question: And the GI50 (HCT-15)?
Answer: The GI50 was 0.528 µM.

Question: What about the CC50 at 48 h [8] of the same compound?
Answer: Its CC50 at 48 h is 94.7 µM.

Question: And the GI50 (KM12)?
Answer: The GI50 was 1.2 µM.

Question: What about the LC50 (50% lethal concentration) at 48 h [9] of the same compound?
Answer: Its LC50 (50% lethal concentration) at 48 h is 83.8 µM.

Question: And the GI50 (SW-620)?
Answer: Its GI50 is 0.389 µM.

Question: And the CC50 at 48 h [10]?
Answer: The CC50 at 48 h was 21.8 µM.

Question: What about the GI50 (LOX IMVI) of the same compound?
Answer: The GI50 was 0.494 µM.

Question: And the CC50 at 48 h [11]?
Answer: The CC50 at 48 h was 5.6 µM.

Question: And the GI50 (MDA-MB-435)?
Answer: Its GI50 is 1.05 µM.

Question: What about the CC50 at 48 h [12] of the same compound?
Answer: Its CC50 at 48 h is 66.7 µM.

Question: What about the GI50 (SK-MEL-2) of the same compound?
Answer: The GI50 was 1.63 µM.

Question: And the CC50 at 48 h [13]?
Answer: The CC50 at 48 h was 11.4 µM.

Question: And the GI50 (SK-MEL-28)?
Answer: The GI50 was 2.26 µM.

Question: What about the CC50 at 48 h [14] of the same compound?
Answer: The CC50 at 48 h was 7.99 µM.

Question: What about the GI50 (786-0) of the same compound?
Answer: Its GI50 is 1.52 µM.

Question: What about the LC50 (786-0) of the same compound?
Answer: The LC50 was 38.5 µM.

Question: What about the GI50 (A498) of the same compound?
Answer: The GI50 was 1.07 µM.

Question: And the CC50 (A498)?
Answer: The CC50 was 5.86 µM.

Question: And the GI50 (CAKI-1)?
Answer: Its GI50 is 0.427 µM.

Question: And the CC50 (CAKI-1)?
Answer: Its CC50 is 85.5 µM.

Question: What about the GI50 (RXF 393) of the same compound?
Answer: The GI50 was 1.13 µM.

Question: What about the CC50 (RXF 393) of the same compound?
Answer: The CC50 was 6.4 µM.

Question: And the GI50 (SN12C)?
Answer: Its GI50 is 0.553 µM.

Question: What about the CC50 (SN12C) of the same compound?
Answer: The CC50 was over 100 µM.

Question: What about the GI50 (TK-10) of the same compound?
Answer: The GI50 was 2.26 µM.

Question: What about the CC50 (TK-10) of the same compound?
Answer: The CC50 was over 100 µM.

Question: What about the GI50 (MCF7) of the same compound?
Answer: Its GI50 is 0.675 µM.

Question: And the CC50 (MCF7)?
Answer: Its CC50 is 57.5 µM.

Question: Which results are given for COc1ccc2c(c1)c1nc3cc(C)c(C)cc3nc1n2CCN(C)C [JBA-094, 2-(9-methoxy-2,3-dimethyl-6H-indolo[2,3-b]quinoxalin-6-yl)-N,N-dimethylethanamine]?
Answer: GI50 (CCRF-CEM): 0.795 µM; CC50 (CCRF-CEM): > 100 µM; GI50 (HL-60(TB)): 1.18 µM; CC50 (HL-60(TB)): > 100 µM; CC50 at 48 h [1]: 96 µM; GI50 (MOLT-4): 0.42 µM; GI50 (RPMI-8226): 0.64 µM; CC50 at 48 h [2]: > 100 µM; GI50 (SR): 0.409 µM; LC50 at 48 h [3]: 6.08 µM; GI50 (HOP-92): 0.238 µM; CC50 at 48 h [4]: 8.2 µM; GI50 (NCI-H23): 0.973 µM; LC50 at 48 h [5]: > 100 µM; GI50 (NCI-H522): 0.515 µM; CC50 at 48 h [6]: 6.59 µM; GI50 (HCT-116): 0.312 µM; LC50 (concentration killing 50% of cells) at 48 h [7]: 5.57 µM; GI50 (HCT-15): 0.41 µM; CC50 at 48 h [8]: 6.36 µM; GI50 (KM12): 1.05 µM; LC50 (50% lethal concentration) at 48 h [9]: 5.53 µM; GI50 (SW-620): 0.454 µM; CC50 at 48 h [10]: 6.07 µM; GI50 (LOX IMVI): 0.336 µM; CC50 at 48 h [11]: 6.03 µM; GI50 (MDA-MB-435): 1.11 µM; CC50 at 48 h [12]: 7.87 µM; GI50 (SK-MEL-2): 1.71 µM; CC50 at 48 h [13]: 6.76 µM; GI50 (SK-MEL-28): 1.79 µM; CC50 at 48 h [14]: 6.7 µM; GI50 (786-0): 1.04 µM; LC50 (786-0): 6.52 µM; GI50 (A498): 1.48 µM; CC50 (A498): 5.56 µM; GI50 (CAKI-1): 0.541 µM; CC50 (CAKI-1): 4.93 µM; GI50 (RXF 393): 1.18 µM; CC50 (RXF 393): 6.9 µM; GI50 (SN12C): 0.503 µM; CC50 (SN12C): 5.24 µM; GI50 (TK-10): 1.96 µM; CC50 (TK-10): 6.92 µM; GI50 (MCF7): 0.332 µM; CC50 (MCF7): 4.79 µM
